Data reported in patent publication US5981558A, “DC107 derivatives” (Kyowa Hakko Kogyo Co., Ltd., priority 1996, dated 1999).
Where two headings read alike, the source gives them in different places.

What was measured:
HeLa S3 cells = assay: HeLa S3 Cell Growth Inhibition Test; type: cell-based
Procedure: In each well of a 96-well microtiter plate was placed 0.1 mL of HeLa S3 cells having a concentration of 8×10^3 cells/mL and prepared in an MEM culture medium containing 10% fetal bovine serum and 2 mM glutamine. After the cells were incubated overnight at 37° C. in a carbon dioxide incubator, a test compound suitably diluted with a medium was added to the wells in an amount of 0.05 mL for each well. The cells were incubated at 37° C. for 72 hours in a carbon dioxide incubator. After the culture supernatant was removed, 0.1 mL of a culture medium containing 0.02% Neutral Red was added to each well. The cells were then incubated at 37° C. for 1 hour in a carbon dioxide incubator to dye the cells. After the culture supernatant was removed, each residue was rinsed once with physiological saline and the pigment was extracted with 0.001 N hydrochloric acid/30% ethanol. The absorbance at 550 nm of each extract was measured with a microplate reader. The drug concentration required for the 50% inhibition of cell growth, which is referred to as IC50, was calculated by comparing the absorbance for untreated cells with those for cells treated with the drug in known concentrations.

[1] = tested on: Sarcoma 180 mouse solid tumor; assay: Antitumor activity against Sarcoma 180 mouse solid tumor; type: in vivo, mouse (ddY); conditions: Sarcoma-180, iv, 168 h; for response vs control in vivo at 16 mg/kg: 16 mg/kg i.v. once
Procedure: To a ddY mouse were intraperitoneally transplanted 5×10^6 sarcoma 180 cells. On the seventh day from the transplant, the cells were collected from the ascites, washed once with sterilized physiological saline, and then diluted with sterilized physiological saline to prepare a cell suspension having a concentration of 5×10^7 cells/mL. This suspension was transplanted in an amount of 0.01 mL to a subcutaneous part of the right axilla of each of male ddY mice each weighing 20±1 g.
A test compound was dissolved in physiological saline containing polyoxyethylene sorbitan monolaurate. At 24 hours after the tumor transplant, 0.2 mL of the solution was intravenously administered to the tail of each of a group of five mice.

[2] = Homo sapiens, HeLa S3, 72 h, HeLa S3, 72 hours incubation, Neutral Red, read-out: IC50, HeLa S3 cell growth inhibition
[3] = 8.0 mg/kg i.v. once, 24 hours after transplant, tumor volume on day 7, read-out: T/C (tumor volume ratio treated/control)
[4] = 4.0 mg/kg i.v. once, 24 hours after transplant, tumor volume on day 7, read-out: T/C (tumor volume ratio treated/control)
[5] = Homo sapiens, HeLa S3, 72 h, read-out: IC50, HeLa S3 cell growth inhibition, HeLa S3, 72 hours incubation, Neutral Red
[6] = read-out: T/C (tumor volume ratio treated/control)
[7] = 24 hours after transplant, tumor volume on day 7, read-out: T/C (tumor volume ratio treated/control)

Compound `CC1=CC(OC2CCCCO2)C(=O)C=CC=Cc2csc(n2)C(C)N2C(=O)CC(C(C)(O)C(=O)SCOC(=O)C(C)(C)NC(=O)OCc3ccccc3)(CC1)[S+]2[O-]` (single isomer, unassigned) [Compound 4] has an IC50 (HeLa S3 cells; [2]) of 0.039 µM and a response vs control in vivo at 8 mg/kg [1, 3] of 30%.

`COC(=O)NCC(=O)OCSC(=O)C(C)(O)C12CC/C(C)=C/C(OC3CCCCO3)C(=O)/C=C/C=C\c3csc(n3)C(C)N(C(=O)C1)[S+]2[O-]` (single isomer, unassigned) [Compound 41] showed an IC50 (HeLa S3 cells; HeLa S3, 72 hours incubation, Neutral Red, read-out: IC50, HeLa S3 cell growth inhibition) of 0.004 µM and a response vs control in vivo at 4 mg/kg [1, 4] of 32%.

Work on `COC(=O)[C@H](CCC(=O)OCSC(=O)C(C)(O)C12CC/C(C)=C/C(OC3CCCCO3)C(=O)/C=C/C=C\c3csc(n3)C(C)N(C(=O)C1)[S+]2[O-])NC(=O)[C@@]12O[C@H]3COC(C)(C)O[C@H]3[C@@H]1OC(C)(C)O2` (single isomer, unassigned) [Compound 50] yielded an IC50 (HeLa S3 cells; [5]) of 0.016 µM and a response vs control in vivo at 8 mg/kg [1, 6] of 41%.

Compound `CC1=CC(O)C(=O)C=CC=Cc2csc(n2)C(C)N2C(=O)CC(C(C)(O)C(=O)SCOC(=O)C(C)(C)NC(=O)OCc3ccccc3)(CC1)[S+]2[O-]` (centres unmarked) [Compound 3] has an IC50 (HeLa S3 cells; [2]) of 0.13 µM and a response vs control in vivo at 16 mg/kg [1, 7] of 21%.

Compound `CC1=CC(OC2CCCCO2)C(=O)C=CC=Cc2csc(n2)C(C)N2C(=O)CC(C(C)(O)C(=O)SCOC(=O)c3ccccc3)(CC1)[S+]2[O-]` (centres unmarked) [Compound 7] has an IC50 (HeLa S3 cells; [5]) of 0.05 µM and a response vs control in vivo at 4 mg/kg [1, 6] of 23%.

Compound `CC1=CC(O)C(=O)C=CC=Cc2csc(n2)C(C)N2C(=O)CC(C(C)(O)C(=O)SCOC(=O)C3CCC(C(=O)O)CC3)(CC1)[S+]2[O-]` (centres unmarked) [Compound 11] has an IC50 (HeLa S3 cells; Homo sapiens, HeLa S3, 72 h, read-out: IC50, HeLa S3 cell growth inhibition, footnote *: Value after 72 hours of drug treatment) of 0.1 µM and a response vs control in vivo at 4 mg/kg [1, 6] of 48%.

With `CC1=CC(OC2CCCCO2)C(=O)C=CC=Cc2csc(n2)C(C)N2C(=O)CC(C(C)(O)C(=O)SCOC(=O)C3CCC(C(=O)O)CC3)(CC1)[S+]2[O-]` (centres unmarked) [Compound 12] the IC50 (HeLa S3 cells; [2]) was 0.87 µM and the response vs control in vivo at 8 mg/kg [1, 3] was 47%.

`CC1=CC(O)C(=O)C=CC=Cc2csc(n2)C(C)N2C(=O)CC(C(C)(O)C(=O)SCOC(=O)CO)(CC1)[S+]2[O-]` (centres unmarked) [Compound 14] was tested, and the IC50 (HeLa S3 cells; [5]) was 0.38 µM and the response vs control in vivo at 2 mg/kg [1, 6] was 44%.

`CC1=CC(OC2CCCCO2)C(=O)C=CC=Cc2csc(n2)C(C)N2C(=O)CC(C(C)(O)C(=O)SCOC(=O)CO)(CC1)[S+]2[O-]` (centres unmarked) [Compound 15] was tested, and the IC50 (HeLa S3 cells; [5]) was 0.014 µM and the response vs control in vivo at 1 mg/kg [1, 6] was 45%.

In the case of `CC1=CC(O)C(=O)C=CC=Cc2csc(n2)C(C)N2C(=O)CC(C(C)(O)C(=O)SCOC(=O)CNC(=O)OC(C)(C)C)(CC1)[S+]2[O-]` (centres unmarked) [Compound 16], the IC50 (HeLa S3 cells; [5]) is reported as 0.0061 µM and the response vs control in vivo at 2 mg/kg [1, 6] is reported as 47%.

In the case of `CC1=CC(O)C(=O)C=CC=Cc2csc(n2)C(C)N2C(=O)CC(C(C)(O)C(=O)SCOC(=O)CC[C@H](NC(=O)OC(C)(C)C)C(=O)OC(C)(C)C)(CC1)[S+]2[O-]` (some centres unmarked) [Compound 22], the IC50 (HeLa S3 cells; [2]) is reported as 0.0074 µM and the response vs control in vivo at 4 mg/kg [1, 4] is reported as 42%.

`COC(=O)[C@H](CCC(=O)OCSC(=O)C(C)(O)C12CCC(C)=CC(O)C(=O)C=CC=Cc3csc(n3)C(C)N(C(=O)C1)[S+]2[O-])NC(=O)[C@H]1O[C@@H]2OC(C)(C)O[C@@H]2[C@H]2OC(C)(C)O[C@H]21` (some centres unmarked) [Compound 25] was tested, and the IC50 (HeLa S3 cells; [2]) was 0.8 µM and the response vs control in vivo at 16 mg/kg [1, 7] was 30%.

`CC(=O)NC(Cc1ccc(OC(C)=O)cc1)C(=O)OCSC(=O)C(C)(O)C12CCC(C)=CC(O)C(=O)C=CC=Cc3csc(n3)C(C)N(C(=O)C1)[S+]2[O-]` (centres unmarked) [Compound 29] showed an IC50 (HeLa S3 cells; [2]) of 0.4 µM and a response vs control in vivo at 4 mg/kg [1, 4] of 47%.

Compound `COC(=O)NCC(=O)OCSC(=O)C(C)(O)C12CC/C(C)=C/C(OC3CCCCO3)C(=O)/C=C/C=C\c3csc(n3)C(C)N(C(=O)C1)[S+]2[O-]` (centres unmarked) [Compound 40] has an IC50 (HeLa S3 cells; [2]) of 0.015 µM and a response vs control in vivo at 4 mg/kg [1, 4] of 36%.

With `C/C1=C\C(OC2CCCCO2)C(=O)/C=C/C=C\c2csc(n2)C(C)N2C(=O)CC(C(C)(O)C(=O)SCOC(=O)CCNC(=O)[C@H]3O[C@@H]4OC(C)(C)O[C@@H]4[C@H]4OC(C)(C)O[C@H]43)(CC1)[S+]2[O-]` (some centres unmarked) [Compound 45] the IC50 (HeLa S3 cells; [5]) was 0.044 µM and the response vs control in vivo at 8 mg/kg [1, 6] was 45%.

Work on `CC(=O)Oc1ccc(C(=O)OCSC(=O)C(C)(O)C23CC/C(C)=C/C(OC4CCCCO4)C(=O)/C=C/C=C\c4csc(n4)C(C)N(C(=O)C2)[S+]3[O-])cc1` (centres unmarked) [Compound 53] yielded an IC50 (HeLa S3 cells; [2]) of 0.035 µM and a response vs control in vivo at 8 mg/kg [1, 3] of 50%.
